{
  "source": "patent US10287301B2",
  "about": "(Achillion Pharmaceuticals, Inc., priority 2015, dated 2019)",
  "data": [
    {"biological_target": "Human Factor D (Homo sapiens (Human), UniProt P00746)", "sequence (P00746 26-253)": "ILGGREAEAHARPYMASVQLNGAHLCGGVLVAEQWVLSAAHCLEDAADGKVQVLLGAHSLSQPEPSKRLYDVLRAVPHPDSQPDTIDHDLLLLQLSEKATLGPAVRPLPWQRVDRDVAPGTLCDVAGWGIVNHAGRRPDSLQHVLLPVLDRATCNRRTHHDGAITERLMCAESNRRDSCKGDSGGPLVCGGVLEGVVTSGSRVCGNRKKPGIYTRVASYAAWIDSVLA", "experiment": "Human Factor D Assay", "assay_type": "biochemical", "settings": "not given", "summary_of_the_method": "(§1)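 Thioester cleavage assay: human Factor D (serum-derived, 80 nM final), substrate Z-L-Lys-SBzl with DTNB, both 100 μM final, after 5 min compound preincubation at room temperature.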", "units": {"IC50": "nM"}, "values": [
      {"smiles": "CC(=O)c1nn(CC(=O)N2C[C@H](F)C[C@H]2C(=O)NC2CCN(C(=O)c3cn[nH]c3)CC2)c2ccc(-c3cnc(C)nc3)cc12", "note": "[Compound 261, (2S,4R)-N-(1-(1H-pyrazole-4-carbonyl)piperidin-4-yl)-1-(2-(3-acetyl-5-(2-methylpyrimidin-5-yl)-1H-indazol-1-yl)acetyl)-4-fluoropyrrolidine-2-carboxamide]", "IC50": "1000 to 10000"}
    ]},
    {"biological_target": "Human Factor D (Homo sapiens (Human), UniProt P00746)", "experiment": "Human Factor D Assay", "assay_type": "biochemical", "settings": "Human Factor D 80 nM, substrate Z-L-Lys-SBzl; read-out: IC50", "summary_of_the_method": "as §1", "units": {"IC50": "nM"}, "values": [
      {"smiles": "CC(=O)c1cn(CC(=O)N2C[C@H](F)C[C@H]2C(=O)NCc2cccc(Cl)c2)c2ccc(-c3ccnnc3)cc12", "note": "[Compound 44, (2S,4R)-1-(2-(3-acetyl-5-(pyridazin-4-yl)-1H-indol-1-yl)acetyl)-N-(3-chlorobenzyl)-4-fluoropyrrolidine-2-carboxamide]", "IC50": "< 1000"},
      {"smiles": "NC(=O)c1nn(CC(=O)N2C[C@H](F)C[C@H]2C(=O)Nc2ccc3ncsc3c2)c2ccc(-c3ccnnc3)cc12", "note": "[Compound 50, 1-(2-((2S,4R)-2-(benzo[d]thiazol-6-ylcarbamoyl)-4-fluoropyrrolidin-1-yl)-2-oxoethyl)-5-(pyridazin-4-yl)-1H-indazole-3-carboxamide]", "IC50": "> 10000"},
      {"smiles": "CC(=O)c1cn(CC(=O)N2C[C@H](F)C[C@H]2C(=O)Nc2cncc(Br)n2)c2ccc(-c3ccnnc3)cc12", "note": "[Compound 127, (2S,4R)-1-(2-(3-acetyl-5-(pyridazin-4-yl)-1H-indol-1-yl)acetyl)-N-(6-bromopyrazin-2-yl)-4-fluoropyrrolidine-2-carboxamide]", "IC50": "< 1000"},
      {"smiles": "COc1ncc(-c2ccc3c(c2)c(C(C)=O)cn3CC(=O)N2[C@@H]3C[C@@H]3C[C@H]2C(=O)Nc2cccc(-c3ccccc3Cl)c2F)cn1", "note": "[Compound 80, (1R,3S,5R)-2-(2-(3-acetyl-5-(2-methoxypyrimidin-5-yl)-1H-indol-1-yl)acetyl)-N-(2′-chloro-2-fluorobiphenyl-3-yl)-2-azabicyclo[3.1.0] hexane-3-carboxamide]", "IC50": "< 1000"},
      {"smiles": "Cc1cc(NC(=O)[C@@H]2C[C@@H](F)CN2C(=O)Cn2nc(C(N)=O)c3cc(-c4ccnnc4)ccc32)n(-c2ccccc2F)n1", "note": "[Compound 158, 1-(2-((2S,4R)-4-fluoro-2-(1-(2-fluorophenyl)-3-methyl-1H-pyrazol-5-ylcarbamoyl)pyrrolidin-1-yl)-2-oxoethyl)-5-(pyridazin-4-yl)-1H-indazole-3-carboxamide]", "IC50": "> 10000"},
      {"smiles": "CCN1Cc2ccc(NC(=O)[C@@H]3C[C@@H](F)CN3C(=O)Cn3nc(C(N)=O)c4cc(-c5ccnnc5)ccc43)cc2C1=O", "note": "[Compound 48, 1-(2-((2S,4R)-2-(2-ethyl-3-oxoisoindolin-5-ylcarbamoyl)-4-fluoropyrrolidin-1-yl)-2-oxoethyl)-5-(pyridazin-4-yl)-1H-indazole-3-carboxamide]", "IC50": "> 10000"},
      {"smiles": "NC(=O)c1nn(CC(=O)N2C[C@H](F)C[C@H]2C(=O)Nc2ccc(F)c(-c3nnc4n3CCCCC4)c2)c2ccc(-c3ccnnc3)cc12", "note": "[Compound 91, 1-(2-((2S,4R)-4-fluoro-2-(4-fluoro-3-(6,7,8,9-tetrahydro-5H-[1,2,4]triazolo[4,3-a]azepin-3-yl)phenylcarbamoyl)pyrrolidin-1-yl)-2-oxoethyl)-5-(pyridazin-4-yl)-1H-indazole-3-carboxamide]", "IC50": "> 10000"}
    ]},
    {"biological_target": "Human Factor D (Homo sapiens (Human), UniProt P00746)", "experiment": "Human Factor D Assay", "assay_type": "biochemical", "settings": "Human Factor D assay of Example 8; Table 2; read-out: IC50", "summary_of_the_method": "as §1", "units": {"IC50": "nM"}, "values": [
      {"smiles": "CC(=O)c1nn(CC(=O)N2C[C@H](F)C[C@H]2C(=O)Nc2cccc(Br)n2)c2ccc(-c3ccc4nc(C)nn4c3)cc12", "note": "[Compound 311, (2S,4R)-1-(2-(3-acetyl-5-(2-methyl-[1,2,4]triazolo[1,5-a]pyridin-6-yl)-1H-indazol-1-yl)acetyl)-N-(6-bromopyridin-2-yl)-4-fluoropyrrolidine-2-carboxamide]", "IC50": "< 1000"},
      {"smiles": "CC(=O)c1nn(CC(=O)N2C[C@H](F)C[C@H]2C(=O)Nc2cccc(Br)n2)c2ccc(-c3ccc4ncnn4c3)cc12", "note": "[Compound 248, (2S,4R)-1-(2-(5-([1,2,4]triazolo[1,5-a]pyridin-6-yl)-3-acetyl-1H-indazol-1-yl)acetyl)-N-(6-bromopyridin-2-yl)-4-fluoropyrrolidine-2-carboxamide]", "IC50": "< 1000"},
      {"smiles": "CC(=O)c1cn(CC(=O)N2C[C@H](F)C[C@H]2C(=O)Nc2cccc(Br)n2)c2ccc(-c3cnc(C(N)=O)nc3)cc12", "note": "[Compound 213, 5-(3-acetyl-1-(2-((2S,4R)-2-(6-bromopyridin-2-ylcarbamoyl)-4-fluoropyrrolidin-1-yl)-2-oxoethyl)-1H-indol-5-yl)pyrimidine-2-carboxamide]", "IC50": "< 1000"},
      {"smiles": "CC(=O)c1nn(CC(=O)N2CC(F)(F)C[C@H]2C(=O)Nc2cccc(Br)n2)c2ccc(-c3cnc(C)nc3)cc12", "note": "[Compound 255, (S)-1-(2-(3-acetyl-5-(2-methylpyrimidin-5-yl)-1H-indazol-1-yl)acetyl)-N-(6-bromopyridin-2-yl)-4,4-difluoropyrrolidine-2-carboxamide]", "IC50": "< 1000"},
      {"smiles": "CC(=O)c1nn(CC(=O)N2[C@@H]3C[C@@H]3C[C@H]2C(=O)Nc2cncc(Br)n2)c2ccc(-c3cnc4cc(C)nn4c3)cc12", "note": "[Compound 324, (1R,3S,5R)-2-(2-(3-acetyl-5-(2-methylpyrazolo[1,5-a]pyrimidin-6-yl)-1H-indazol-1-yl)acetyl)-N-(6-bromopyrazin-2-yl)-2-azabicyclo[3.1.0] hexane-3-carboxamide]", "IC50": "< 1000"},
      {"smiles": "CC(=O)c1cn(CC(=O)N2C[C@H](F)C[C@H]2C(=O)Nc2cccc(OC(F)(F)F)c2F)c2ccc(-c3cnc4ccnn4c3)cc12", "note": "[Compound 224, (2S,4R)-1-(2-(3-acetyl-5-(pyrazolo[1,5-a]pyrimidin-6-yl)-1H-indol-1-yl)acetyl)-4-fluoro-N-(2-fluoro-3-(trifluoromethoxy)phenyl)pyrrolidine-2-carboxamide]", "IC50": "< 1000"}
    ]},
    {"biological_target": "Human Factor D (Homo sapiens (Human), UniProt P00746)", "experiment": "Human Factor D Assay", "assay_type": "biochemical", "settings": "Human Factor D, Table 3; read-out: IC50", "summary_of_the_method": "as §1", "units": {"IC50": "nM"}, "values": [
      {"smiles": "CC(=O)c1nn(CC(=O)N2[C@@H]3C[C@@H]3C[C@H]2C(=O)NC/C(F)=C\\c2ccccc2)c2ccc(-c3cnc(C)nc3)cc12", "note": "[Compound 575, (1R,3S,5R)-2-(2-(3-Acetyl-5-(2-methylpyrimidin-5-yl)-1H-indazol-1-yl)acetyl)-N-((E)-2-fluoro-3-phenylallyl)-2-azabicyclo[3.1.0]hexane-3-carboxamide]", "IC50": "< 1000"},
      {"smiles": "CC(=O)c1nn(CC(=O)N2[C@@H]3C[C@@H]3C[C@H]2C(=O)Nc2cncc(Br)n2)c2ccc(-c3cnc4cc(C5CC5)nn4c3)cc12", "note": "[Compound 669, (1R,3S,5R)-2-(2-(3-Acetyl-5-(2-cyclopropylpyrazolo[1,5-a]pyrimidin-6-yl)-1H-indazol-1-yl)acetyl)-N-(6-bromopyrazin-2-yl)-2-azabicyclo[3.1.0]hexane-3-carboxamide]", "IC50": "< 1000"},
      {"smiles": "CC(=O)c1nn(CC(=O)N2[C@H](C(=O)N[C@@H](C)C(F)=C(C)C)C[C@@]3(C)C[C@@H]23)c2ccc(-c3cnc(C)nc3)cc12", "note": "[Compound 622, (1R,3S,5R)-2-(2-(3-acetyl-5-(2-methylpyrimidin-5-yl)-1H-indazol-1-yl)acetyl)-N-((S)-3-fluoro-4-methylpent-3-en-2-yl)-5-methyl-2-azabicyclo[3.1.0] hexane-3-carboxamide]", "IC50": "< 1000"},
      {"smiles": "CC(=O)c1nn(CC(=O)N2[C@H](C(=O)Nc3nc(Br)ccc3C3CC3)C[C@@]3(C)C[C@@H]23)c2ccc(-c3cnc(C)nc3)cc12", "note": "[Compound 616, (1R,3S,5R)-2-(2-(3-Acetyl-5-(2-methylpyrimidin-5-yl)-1H-indazol-1-yl)acetyl)-N-(6-bromo-3-cyclopropyl-pyridin-2-yl)-5-methyl-2-azabicyclo[3.1.0]hexane-3-carboxamide]", "IC50": "< 1000"},
      {"smiles": "CC(=O)n1cc(CC(=O)N2C[C@H](F)C[C@H]2C(=O)Nc2cccc(Br)n2)c2ccc(-c3cnc(C)nc3)cc21", "note": "[Compound 711, (2S,4R)-1-(2-(1-Acetyl-6-(2-methylpyrimidin-5-yl)-1H-indol-3-yl)acetyl)-N-(6-bromopyridin-2-yl)-4-fluoropyrrolidine-2-carboxamide]", "IC50": "< 1000"},
      {"smiles": "CC(=O)c1nn(CC(=O)N2C[C@H](F)C[C@H]2C(=O)Nc2cnc(C)c(Br)n2)c2ccc(-c3cnc4cc(C)nn4c3)cc12", "note": "[Compound 662, (2S,4R)-1-(2-(3-Acetyl-5-(2-methylpyrazolo[1,5-a]pyrimidin-6-yl)-1H-indazol-1-yl)acetyl)-N-(6-bromo-5-methylpyrazin-2-yl)-4-fluoropyrrolidine-2-carboxamide]", "IC50": "< 1000"}
    ]},
    {"biological_target": "Human Factor D (Homo sapiens (Human), UniProt P00746)", "experiment": "Human Factor D Assay", "assay_type": "biochemical", "settings": "Table 3; Human Factor D 80 nM, substrate Z-L-Lys-SBzl; read-out: IC50 (Stars)", "summary_of_the_method": "as §1", "units": {"IC50": "nM"}, "values": [
      {"smiles": "CC(=O)c1nn(CC(=O)N2C[C@H](F)C[C@H]2C(=O)Nc2nn(C)c3ncccc23)c2ccc(-c3cnc(C)nc3)cc12", "note": "[Compound 439, (2S,4R)-1-(2-(3-Acetyl-5-(2-methylpyrimidin-5-yl)-1H-indazol-1-yl)acetyl)-4-fluoro-N-(1-methyl-1H-pyrazolo[3,4-b]pyridin-3-yl)pyrrolidine-2-carboxamide]", "IC50": "< 1000"},
      {"smiles": "CC(=O)c1nn(CC(=O)N2[C@@H]3C[C@@H]3C[C@H]2C(=O)Nc2ccc(F)c(Br)n2)c2ccc(-c3cnc(C)nc3)cc12", "note": "[Compound 447, (1R,3S,5R)-2-(2-(3-Acetyl-5-(2-methylpyrimidin-5-yl)-1H-indazol-1-yl)acetyl)-N-(6-bromo-5-fluoropyridin-2-yl)-2-azabicyclo[3.1.0]hexane-3-carboxamide]", "IC50": "< 1000"},
      {"smiles": "CC(=O)c1nn(CC(=O)N2C[C@H](F)C[C@H]2C(=O)Nc2ccc(F)c(Br)n2)c2ccc(-c3cnc(C)nc3)cc12", "note": "[Compound 397, (2S,4R)-1-(2-(3-Acetyl-5-(2-methylpyrimidin-5-yl)-1H-indazol-1-yl)acetyl)-N-(6-bromo-5-fluoropyridin-2-yl)-4-fluoropyrrolidine-2-carboxamide]", "IC50": "< 1000"},
      {"smiles": "CCOC(=O)Cc1ncc(-c2ccc3c(c2)c(C(C)=O)nn3CC(=O)N2C[C@H](F)C[C@H]2C(=O)Nc2cccc(Br)n2)cn1", "note": "[Compound 537, Ethyl 2-(5-(3-acetyl-1-(2-((2S,4R)-2-((6-bromopyridin-2-yl)carbamoyl)-4-fluoropyrrolidin-1-yl)-2-oxoethyl)-1H-indazol-5-yl)pyrimidin-2-yl)acetate]", "IC50": "< 1000"},
      {"smiles": "CC(=O)c1nn(CC(=O)N2[C@@H]3C[C@@H]3C[C@H]2C(=O)Nc2cncc(Br)n2)c2ccc(-c3cnc(C)nc3)cc12", "note": "[Compound 350, (1R,3S,5R)-2-(2-(3-Acetyl-5-(2-methylpyrimidin-5-yl)-1H-indazol-1-yl)acetyl)-N-(6-bromopyrazin-2-yl)-2-azabicyclo[3.1.0]hexane-3-carboxamide]", "IC50": "< 1000"}
    ]}
  ]
}
